Assay results from patent US20100249064A1, “METHODS AND COMPOSITIONS FOR TREATING DISEASES AND CONDITIONS INVOLVING HIGHER MOLECULAR WEIGHT HYALURONAN” (University of Chicago, priority 2007, published 2010).

How the values were obtained:
Type in all cases: cell-based, human
[1] = test system: RhoA and Rac; experiment: Rho family activation assay; details: 100 nM HA; for Rac1 activation: LMW-HA 5 min, HMW-HA 5, 15, 30 min
Method: Rho Family Activation Assay—The RhoA and Rac activation assays using human lung EC were performed as described (Ren et al., 1999).

[2] = test system: HPMVEC; experiment: EC proliferation (CellTiter96 MTS); details: 100 nM HA with or without 100 nM VEGF, or siRNA 48 hours then VEGF; 24 h
Method: Determination of the role of HMW-HA/CD44 interactions in regulating hyaluronidase activity and angiogenesis in vitro. Human pulmonary microvascular EC (HPMVEC) (Cambrex), grown in EBM-2 complete medium (Cambrex) at 37° C. in a humidified atmosphere of 5% CO2, 95% air, with passages 6-10 used for experimentation was treated with or without 100 nM HMW-HA and/or 100 nM VEGF in the presence or absence of CD44 isoform-specific blocking antibodies (EMD Biosciences), siRNA (scramble, CD44, Hyal-1, Hyal-2, Hyal-3 or Hyal-4) and the potent hyaluronidase inhibitor, L-ascorbic acid 6-hexadecanoate (Botzki et al., 2004) (Sigma). […] Treated EC will either be analyzed for protein expression, hyaluronidase activity or VEGF-induced proliferation, migration or tube formation. […] Cells from the upper and lower chamber were quantitated using the CellTiter96™ MTS assay (Promega, San Luis Obispo, Calif.) and read at 492 nm. % migration was defined as the # of cells in the lower chamber […] the number of cells in both the upper and lower chamber. Each assay was set up in triplicate, repeated at least five times and analyzed statistically by Student's t test (with statistical significance set at P<0.05). […] The in vitro cell proliferation assay was analyzed by measuring increases in cell number using the CellTiter96™ MTS assay (Promega, San Luis Obispo, Calif.) and read at 492 nm. […]

[3] = test system: S1P1 and S1P3 Receptor; experiment: Tyrosine/serine/threonine phosphorylation of S1P receptors; details: 100 nM HA
Method: Determination of Tyrosine/Serine/Threonine Phosphorylation of the S1P1 and S1P3 Receptor—Immunoprecipitation of solubilized proteins in IP buffer B (see above) took place with either rabbit anti-S1P1 receptor or mouse anti-S1P3 receptor antibody, which was followed by SDS-PAGE in 4-15% polyacrylamide gels and transfer onto Immobilon™ membranes (Millipore Corp., Bedford, Mass.). Following blockage of nonspecific sites with 5% bovine serum albumin, the blots were incubated with either rabbit anti-S1P1 antibody, mouse anti-S1P3 antibody, mouse anti-phospho-tyrosine, rabbit anti-phospho-serine antibody or rabbit anti-phospho-threonine antibody, and then incubated with horseradish peroxidase (HRP)-labeled goat anti-rabbit or goat anti-mouse IgG. Enhanced chemiluminescence (Amersham Biosciences) for visualization of immunoreactive bands then took place.

Substance | Rac1 activation [1] | EC proliferation (% Proliferation) [2] | S1P receptor phosphorylation [3] | RhoA activation ([1]; 15-30 min)
hyaluronan [HMW-HA] | induced Rac1 activation | inhibited VEGF-induced hyaluronidase expression, EC proliferation (A) and migration (B) | promoted AKT1-mediated threonine phosphorylation of S1P1 receptor | –
hyaluronan [LMW-HA, reference compound] | induced Rac1 activation | promotes EC proliferation and migration | induced sequential AKT1-mediated S1P1 and Src/ROCK1/2-mediated S1P3 receptor phosphorylation/activation | promoted RhoA activation
